Laboratory results taken from patent publication US11447494B2, “Tricyclic amine compounds as CDK2 inhibitors” (Incyte Corporation, priority 2019, dated 2022).
pIC50: −log10 of the molar value.

Experiments:
[1] = tested on: CCNE1 amplified COV318 cells; test: Cell cycle analysis by FACS in COV318 cells after p16 or control siRNA; format: cell-based, human; conditions: 100 nM, 16 hours
Procedure: To confirm the role of p16 in CDK2-sensitivity of CCNE-amplified cells, COV318 cells were treated with control or p16-specific siRNA.
(§1) Bulk DNA was stained with DAPI. Compound-treated and DMSO treated control cells were acquired with CytoFlex (Beckman Coulter) and were analyzed using the FlowJo software. For cell cycle analysis of cells with siRNA knockdown, 72 hours after siRNA transfection, cells exposed to […] for 3 hours before detection of Click-iT Alexa Fluor® 647 azide kit.

CDK2/Cyclin E1 = CDK2/Cyclin E1 (Homo sapiens (Human), UniProt P24941); test: CDK2/Cyclin E1 HTRF enzyme activity assay; format: biochemical; conditions: 1 mM ATP
Procedure: CDK2/Cyclin E1 enzyme activity assays utilize full-length human CDK2 co-expressed as N-terminal GST-tagged protein with FLAG-Cyclin E1 in a baculovirus expression system (Carna Product Number 04-165). Assays are conducted in white 384-well polystyrene plates in a final reaction volume of 8 μL. CDK2/Cyclin E1 (0.25 nM) is incubated with compounds (40 nL serially diluted in DMSO) in the presence of ATP (50 μM or 1 mM) and 50 nM ULight™-labeled eIF4E-binding protein 1 (THR37/46) peptide (PerkinElmer) in assay buffer (containing 50 mM HEPES pH 7.5, 1 mM EGTA, 10 mM MgCl2, 2 mM DTT, 0.05 mg/mL BSA, and 0.01% Tween 20) for 60 minutes at room temperature. The reactions are stopped by the addition of EDTA and Europium-labeled anti-phospho-4E-BP1 antibody (PerkinElmer), for a final concentration of 15 mM and 1.5 nM, respectively. HTRF signals are read after 1 hour at room temperature on a PHERAstar FS plate reader (BMG Labtech). Data is analyzed with IDBS XLFit and GraphPad Prism 5.0 software using a three or four parameter dose response curve to determine IC50 for each compound.

[2] = tested on: CCNE1-amplified cell lines (COV318, OVCAR3); test: Cell cycle analysis by FACS in CCNE1-amplified cell lines; format: cell-based, human
Procedure: (§2) The effect of CDK4/6-inhibition in CCNE1-amplified versus CCNE1-non-amplified cell lines was evaluated.
(§3) A similar experiment was performed in a larger set of CCNE1-amplified cell lines (COV318 and OVCAR3) and CCNE1-non-amplified cell lines (COV504, OV56, and Igrov1) (FIG. 6).
as §1

[3] = tested on: Rb phosphorylation at S780 in CCNE1-non-amplified cell lines (COV504 and OV56); test: Western blot of Rb phosphorylation at S780 in CCNE1-non-amplified cell lines; format: cell-based, human; conditions: 1 or 15 hours, various doses
Procedure: The effect of CDK4/6-inhibition on Rb phosphorylation at S780 in CCNE1-amplified versus CCNE1-non-amplified cell lines was evaluated. […] One or 15 hours after treatment, the cells were harvested and total protein was extracted and analyzed by western blot (FIG. 8).
Whole cell extracts were prepared using RIPA buffer (Thermo Scientific, 89900) with a Halt Protease and Phosphatase Inhibitor Cocktail (Thermo Scientific, 78440). Protein concentration was quantified with a BCA Protein Assay Kit (Thermo Scientific, 23225) and […] of protein lysates were loaded for SDS-PAGE using precast gradient gels (Bio-Rad, Hercules, No. 456-1094). Samples were diluted in 5× Laemmli buffer (300 mM Tris-HCl pH 6.8, 10% SDS (w/v), 5% 2-mercaptoethanol, 25% glycerol (v/v), 0.1% bromophenol blue w/v) and boiled for 5 minutes. […] of proteins were separated by 8-15% SDS-PAGE and transferred onto polyvinylidene fluoride (PVDF) membranes. Unspecific binding sites on the PVDF membranes were blocked with 5% non-fat milk in TBST (20 mM Tris-HCl, pH 7.6, 137 mM NaCl, 1% Tween-20). […] Images were captured by Luminescence/Fluorescence Imaging System Odyssey CLx Imager (LI-COR).

[4] = tested on: CCNE1-non-amplified cell lines (COV504, OV56, Igrov1); test: Cell cycle analysis by FACS in CCNE1-non-amplified cell lines; format: cell-based, human
Procedure: as §2, §3, §1

| pIC50 (CDK2/Cyclin E1) | SMILES | also measured |
| --- | --- | --- |
| – | C[C@@]1(O)CCC[C@H]1n1c(=O)ccc2cnc(NC3CCN(S(C)(=O)=O)CC3)nc21 [Compound A, 8-((1R,2R)-2-hydroxy-2-methylcyclopentyl)-2-((1-(methylsulfonyl)piperidin-4-yl)amino)pyrido[2,3-d]pyrimidin-7(8H)-one] | percentage of S phase cells ([1]; control siRNA-treated cells): significantly decreased; percentage of S phase cells ([1]; p16 knocked down cells, vs DMSO): not significantly decreased |
| ≥ 7.30 | CNS(=O)(=O)c1ccc(Nc2ncc3c(n2)-c2c(nc(C)n2C(C)C)CC3)cc1 [Example 1, 4-((1-Isopropyl-2-methyl-4,5-dihydro-1H-imidazo[4,5-h]quinazolin-8-yl)amino)-N-methylbenzenesulfonamide] | – |
| ≥ 7.30 | Cc1nc2c(n1C)-c1nc(Nc3ccc(S(=O)(=O)N(C)C)cc3)ncc1CC2 [Example 2, 4-((1,2-Dimethyl-4,5-dihydro-1H-imidazo[4,5-h]quinazolin-8-yl)amino)-N,N-dimethylbenzenesulfonamide] | – |
| ≥ 7.30 | Cc1nc2c(n1C)-c1nc(Nc3ccc(S(C)(=O)=O)cc3)ncc1CC2 [Example 3, 1,2-Dimethyl-N-(4-(methylsulfonyl)phenyl)-4,5-dihydro-1H-imidazo[4,5-h]quinazolin-8-amine] | – |
| ≥ 7.30 | CNS(=O)(=O)c1ccc(Nc2ncc3c(n2)-c2c(nc(C)n2C)CC3)cc1 [Example 4, 4-((1,2-Dimethyl-4,5-dihydro-1H-imidazo[4,5-h]quinazolin-8-yl)amino)-N-methylbenzenesulfonamide] | – |
| ≥ 7.30 | CNS(=O)(=O)c1ccc(Nc2ncc3c(n2)-c2c(nc(C)n2C)CC3)c(F)c1 [Example 5, 4-((1,2-Dimethyl-4,5-dihydro-1H-imidazo[4,5-h]quinazolin-8-yl)amino)-3-fluoro-N-methylbenzenesulfonamide] | – |
| ≥ 7.30 | Cc1nc2c(n1C)-c1nc(Nc3ccc(S(=O)(=O)NC(C)C)cc3)ncc1CC2 [Example 6, 4-((1,2-Dimethyl-4,5-dihydro-1H-imidazo[4,5-h]quinazolin-8-yl)amino)-N-isopropylbenzenesulfonamide] | – |
| ≥ 7.30 | Cc1nc2c(n1C)-c1nc(Nc3ccc(S(=O)(=O)NCCO)cc3)ncc1CC2 [Example 7, 4-((1,2-Dimethyl-4,5-dihydro-1H-imidazo[4,5-h]quinazolin-8-yl)amino)-N-(2-hydroxyethyl)benzenesulfonamide] | – |
| ≥ 7.30 | NS(=O)(=O)c1ccc(Nc2ncc3c(n2)-n2ccnc2CC3)cc1 [Example 8, 4-((5,6-Dihydroimidazo[1′,2′:1,6]pyrido[2,3-d]pyrimidin-2-yl)amino)benzenesulfonamide] | – |
| ≥ 7.30 | NS(=O)(=O)c1ccc(Nc2ncc3c(n2)-n2ccnc2CO3)cc1 [Example 9, 4-((6H-Imidazo[1,2-d]pyrimido[5,4-b][1,4]oxazin-2-yl)amino)benzenesulfonamide] | – |
| ≥ 7.30 | Cc1nc2c(n1C)-c1nc(Nc3ccc(S(=O)(=O)NCCN(C)C)cc3F)ncc1CC2 [Example 10, 4-((1,2-Dimethyl-4,5-dihydro-1H-imidazo[4,5-h]quinazolin-8-yl)amino)-N-(2-(dimethylamino)ethyl)-3-fluorobenzenesulfonamide] | – |
| ≥ 7.30 | Cc1nc2c(n1C)-c1nc(Nc3ccc(S(=O)(=O)NCCCN(C)C)cc3F)ncc1CC2 [Example 11, 4-((1,2-Dimethyl-4,5-dihydro-1H-imidazo[4,5-h]quinazolin-8-yl)amino)-N-(3-(dimethylamino)propyl)-3-fluorobenzenesulfonamide] | – |
| ≥ 7.30 | Cc1nc2c(n1C)-c1nc(Nc3ccc(S(=O)(=O)NCC4CCOC4)cc3F)ncc1CC2 (stereo not shown) [Example 12, 4-((1,2-Dimethyl-4,5-dihydro-1H-imidazo[4,5-h]quinazolin-8-yl)amino)-3-fluoro-N-((tetrahydrofuran-3-yl)methyl)benzenesulfonamide] | – |
| – | CC(=O)c1c(C)c2cnc(Nc3ccc(N4CCNCC4)cn3)nc2n(C2CCCC2)c1=O [palbociclib] | percentage of cells at the S phase, compared to DMSO ([2]; COV318 and OVCAR3, 16 hours after treatment): not significantly different; inhibition of proliferation (cell cycle analysis) ([2]; OVCAR3 cells, 16 hours, increasing concentrations): not in CCNE1-amplified cells; Rb phosphorylation at S780 [3]: blocked Rb phosphorylation at S780; percentage of cells at the S phase, compared to DMSO ([4]; COV504, OV56, Igrov1, 16 hours after treatment): decreased in CCNE1-non-amplified cell lines in a dose-dependent fashion; inhibition of proliferation (cell cycle analysis) ([4]; COV504 cells, 16 hours, increasing concentrations): dose-dependent inhibition of the proliferation |
